Data from US20160166604A1, “Thiol-Sensitive Positive Inotropes” (priority 2005, published 2016).
“Also recorded” adds a separate entry of the source.

Experiments:
Format in all cases: cell-based
[1] = system: isolated rat ventricular myocytes; experiment: Whole Ca2+ transients and SR Ca2+ load in isolated rat ventricular myocytes (Indo-1, caffeine)
Method: Isolation of ventricular myocytes from rats was carried out as previously described. Bassani, R A. et al., J. Mol. Cell Cardiol., 26, 1335-1347 (1994). The enzyme used for tissue dissociation was Liberase Blendzyme 3 or 4 (13-20 Wuensch Units/Heart) sometimes supplemented with 5-10 Units of Dispase II (both Roche Diagnostics, Indianapolis, Ind.). When the heart became flaccid, left ventricular tissue was cut into small pieces for further incubation (5 to 10 min at 37° C.) in enzyme solution. The tissue was dispersed, filtered, and suspensions rinsed several times before used for experiments. Isolated rat ventricular myocytes were then plated onto superfusion chambers, with the glass bottoms treated with natural mouse laminin (Invitrogen, Carlsbad, Calif.). The standard Tyrode's solution used in all experiments contained (in mM): NaCl 140, KCl 4, MgCl2 1, glucose 10, HEPES 5, and CaCl2 1, pH 7.4. Myocytes were loaded with 6 μM Indo-1/AM for 25 min and subsequently perfused for at least 30 min to allow for deesterfication of the dye. Some cells were pretreated with 0.5 mM AS (in some Caffeine experiments with 1 mM), washed and then loaded with Indo-1/AM. Concentration of the AS stock solution was verified by absorbance at 250 nm. All experiments were done at room temperature (23-25° C.) using field stimulation. Ca^2+-transients were recorded with Clampex 8.0 and data analyzed with Clampfit.
(§1) To further explore potential HNO targets, calcium cycling in adult mouse and rat cardiac myocytes was examined. Cells were first exposed to AS for 5-10 min, then washed and loaded with Indo-1 or Fluo-4 for 20 min. Pretreatment with AS was carried out because the drug reacted with the Ca^2+ indicators (both Fluo-4 and Indo-1) and altered their fluorescent properties. In mice, the calcium transient amplitude assessed by confocal line scan imaging increased by ˜40% over baseline with 0.5 mM AS, (n=27, p<0.001) (FIG. 3A-FIG. 3C), time to peak transient was prolonged (FIG. 3D) while the decay time shortened (FIG. 3E). Basal fluorescence (F0) was unchanged by AS pretreatment (FIG. 3F). Similar results were obtained in rat myocytes (using Indo-1) for Ca^2+ transient amplitude (FIG. 3G and FIG. 3H) and decay time (FIG. 3I). The increase in amplitude was not accompanied by an increase in diastolic Ca^2+ level (ratio 405/485=0.239±0.006 (Con) vs. 0.243±0.008 (AS); n.s.; see also FIG. 3A, FIG. 3F and FIG. 3G). Rapid sustained caffeine (10 mM) application abruptly releases all SR Ca^2+ and subsequent [Ca^2+]i decline is mediated mainly via Na/Ca exchange.

[2] = system: mice cardiomyocytes; experiment: Whole Ca2+ transients in isolated mouse myocytes (fluo-4, confocal line scan)
Method: Wild type 2-4 month old mice were anesthetized with intraperitoneal pentobarbital sodium (100 mg/kg/ip). Hearts were perfused as previously described. Mongillo, M. et al., Circ. Res., 98, 226-234 (2006). To assess for sarcomere shortening, cells were imaged using field stimulation (Warner instruments) in an inverted fluorescence microscope (Diaphot 200; Nikon, Inc). Sarcomere length was measured by real-time Fourier transform (IonOptix MyoCam, CCCCD100M) and cell twitch amplitude is expressed as a percentage of resting cell length. Twitch kinetics was quantified by measuring the time to peak shortening and the time from peak shortening to 50% relaxation. For whole calcium transient measurements, myocytes were loaded with the Ca^2+ indicator fluo-4/AM (Molecular Probes, 20 μM for 30 min) and Ca^2+ transients were measured under field-stimulation at 0.5 Hz in perfusion solution by confocal laser scanning microscope (LSM510, Carl Zeiss). Digital image analysis used customer-designed programs coded in Interactive Data Language (IDL).
as §1

[3] = system: cAMP; experiment: cAMP FRET imaging in neonatal rat cardiomyocytes; conditions: 1 mM AS, n=23, p=NS
Method: Primary cultures of cardiac ventricular myocytes from 1-3 days old Sprague Dawley rats (Charles River Laboratories, Wilmington, Mass.) were prepared as described. Dostal, D. E. et al., Am. J. Physiol., 263, […]-[…] (1992). Cells were transfected with a FRET-based sensor for cAMP (Zaccolo, M. et al., Science, 295, 1711-1715 (2002)) and imaged 48 hrs after transfection. During the experiments, cells were continuously perfused with HEPES buffered Ringer's modified saline (1 mmol/LCaCl2) at room temperature. Cells were imaged on an inverted Olympus IX50 microscope upon excitation at 430 nm. Mongillo, M. et al., Circ. Res., 98, 226-234 (2006). Image analysis was performed by using ImageJ (Rasband, W. S., ImageJ, National Institutes of Health, Bethesda, Md., USA). At each time point, FRET values were measured as the 480 nm/535 nm emission ratio intensity (R) and were normalized to the 480 nm/535 nm value at time 0s (R0). Agents that increase peak Ca^2+ transients coupled to increased sarcomere shortening often do so via a rise in intracellular cAMP and subsequent activation of protein kinase A ([…]. et al., Curr. Med. Chem., 10, 967-981 (2003). To test whether this applied to AS, real-time imaging of cAMP on transfected neonatal rat cardiomyocytes was performed with a cAMP FRET-probe. Zaccolo, M. et al., Science, 295, 1711-1715 (2002). Upon exposure to 1 mM AS, the FRET signal was unchanged (0.3%±0.1%, n=23, p=NS), whereas subsequent application of norepinephrine (10 μM) or phosphodiesterase inhibitor IBMX (100 μM) both increased it by 12% (p<10^-6) (FIG. 2A). Pre-treatment of adult mouse myocytes with the PKA inhibitor […]

[Na+].[Na+].[O-][N+]([O-])=NO [AS, Angeli's salt]
fractional SR Ca2+ release ([1]; AS pretreated): enhanced | relative contribution of NCX to Ca2+ removal ([1]; AS pretreated cells, Con 12.4%): 8.7% | relative contribution of the SR to Ca2+ removal ([1]; AS pretreated cells, Con 87.6%): 91.3% | diastolic Ca2+ level (ratio 405/485) ([1]; AS pretreated rat myocytes, Con 0.239±0.006, n.s.): 0.243±0.008 | SR Ca2+ content (total SR load, caffeine) ([1]; AS pretreated, caffeine 10 mM): unchanged; also recorded: did not alter | τ of caffeine-induced Ca2+ transient decline (Na/Ca exchange function) ([1]; caffeine 10 mM, printed 2.0±0.4 vs. 2.2±0.3, order Con vs. AS assumed): 2.2 ± 0.3 s | Ca2+ transient decay time ([2]; 0.5 mM AS pretreatment): shortened | time to peak Ca2+ transient ([2]; 0.5 mM AS pretreatment): prolonged | increase of calcium transient amplitude over baseline ([2]; 0.5 mM AS pretreatment, n=27): ~40% | basal fluorescence (F0) ([2]; AS pretreatment): unchanged | Ca2+ transients ([2]; AS, isolated murine cardiomyocytes (Example 7)): without changes | change of cAMP FRET signal [3]: 0.3%±0.1%
